PMC8318231, “Rate-of-Kill (RoK) assays to triage large compound sets for Chagas disease drug discovery: Application to GSK Chagas Box” (PLoS Neglected Tropical Diseases, 2021)

Columns and labels:
[1] = system: TcCYP51; conditions: formerly reported; cited from earlier work
[2] = system: T. cruzi Tulahuen trypomastigotes; experiment: T. cruzi trypomastigote assay (Cell Titer-Glo viability, ATP luminescence); format: cell-based, Trypanosoma cruzi; conditions: for Trypomastigotes pIC50 48 hours: 48 hours incubation; for Trypomastigotes pIC50 48 hours / Trypomastigotes pIC50 72 hours: pIC50 = -log10 IC50 in molar units; for Trypomastigotes pIC50 72 hours: 72 hours incubation; for 48 pIC50 / 72 pIC50: trypomastigote assay; for 48 pIC50: 48 h; for 72 pIC50: 72 h
Description: T. cruzi Tulahuen trypomastigotes obtained from the supernatants of LLC-MK2 infected cultures in a 225 cm^2 T-Flasks harvested between days 5 and 8 of infection. Trypomastigotes (5 × 10^4 per well) in 50 μl of DMEM/ 2% FBS were dispensed into white 384 plates (Greiner) pre-stamped with 250 nl compound a single-shot final concentration of 5 μM, or in dose response. […] Cell Titer-Glo cell viability solution (Promega) was added to each well (50 μL) incubated at room temperature for 10 min and luminescence read by Envision plate reader (Perkin Elmer). This assay quantifies the amount of ATP present which is directly proportional to the number of metabolically active cells. All data were normalised (100% effect control for no cells and 0% effect control for DMSO). This assay was adapted from MacLean et al., 2018 [22].

Row | SMILES | CYP51 pIC50 [1] | Trypomastigotes pIC50 48 hours [2] | Trypomastigotes pIC50 72 hours [2] | 48 pIC50 ([2]; figure 1A) | 72 pIC50 ([2]; figure 1A) | 72 pIC50 ([2]; figure 1B)
1 | COc1ccc(C)cc1-c1csc(NC(=O)C(C)n2ccnc2)n1 (centres unmarked) [TCMDC-143430] | 7.4 | < 4.3 | < 4.3 | < 4.3 | < 4.3 | < 4.3
2 | CS(=O)(=O)O.Cc1cc(Br)cc(C(=O)c2c(C(C)C)c(=O)[nH]c(=O)n2Cc2ccnc(N)c2)c1 [TCMDC-143626] | 7.8 | < 4.3 | < 4.3 | < 4.3 | < 4.3 | < 4.3
3 | CN1CCN(c2nc(-c3ccc(Cl)cc3)c3c(N)n(C)nc3n2)CC1 [TCMDC-143426] | < 4 | < 4.3 | < 4.3 | < 4.3 | < 4.3 | < 4.3
4 | Cc1cc(C#N)c([N+](=O)[O-])cc1Br [TCMDC-143541] | 5.1 | 5.8 | 5.5 |  |  | 
5 | CC(C(=O)Nc1ccccc1F)N(C)CC(=O)Nc1cccc2ccccc12 (centres unmarked) [TCMDC-143293] | 4.8 |  | < 4.3 |  |  | 
6 | Clc1ccc(OCCN2CCCCC2c2cccnc2)c(Cl)c1 (centres unmarked) [TCMDC-143235] | 7.2 | 4.4 | 4.4 | 4.4 | 4.4 | 4.4
7 | N#Cc1cc([N+](=O)[O-])ccc1NC1CCCCCC1 [TCMDC-143143] | < 4 | < 4.3 | < 4.3 | < 4.3 | < 4.3 | < 4.3
8 | N#Cc1cccc(CN2CCC(N(Cc3cccnc3)C(=O)c3cc(F)c(F)cc3F)CC2)c1 [TCMDC-143178] | 7.3 | < 4.3 | < 4.3 | < 4.3 | < 4.3 | < 4.3
9 | COc1ccc(C(=O)N2CCC(Nc3cccnc3)C2)c(OC)n1 (centres unmarked) [TCMDC-143474] | 7.2 | < 4.3 | < 4.3 | < 4.3 | < 4.3 | < 4.3
10 | O=S(=O)(NCC(c1cccnc1)N1CCN(c2ccccc2F)CC1)c1ccc(F)cc1 (centres unmarked) [TCMDC-143142] | 7.1 | < 4.3 | < 4.3 | < 4.3 | < 4.3 | < 4.3
11 | CN(Cc1ccc(F)cc1)c1ccc(OCC(=O)N2CCCCC2c2cccnc2)nn1 (centres unmarked) [TCMDC-143334] | 7.3 | < 4.3 | < 4.3 | < 4.3 | < 4.3 | < 4.3
12 | COc1ccc(-c2cc(C)no2)cc1S(=O)(=O)Nc1ccc(F)c(Cl)c1 [TCMDC-143193] | < 4 | 4.8 | 4.4 |  |  | 
13 | O=C(c1cc2cc(Cl)ccc2[nH]1)N1CCCCC1c1cccnc1 (centres unmarked) [TCMDC-143159] | 7.2 | 4.5 | 4.4 |  |  | 
14 | Cn1c(CN2CCN(c3ncc(C(F)(F)F)cc3Cl)CC2)nc2ccncc21 [TCMDC-143276] | 7.1 | < 4.3 | < 4.3 | < 4.3 | < 4.3 | < 4.3
15 | Cc1nn(C2CCS(=O)(=O)C2)c(C)c1CN(C)C(=O)C=Cc1sc2ccccc2c1Cl (centres unmarked) [TCMDC-143258] | 7.5 | 4.4 | 4.7 |  |  | 
16 | CCN(CC)S(=O)(=O)c1ccc(Cn2nc(C(=O)Nc3ccncn3)c3ccccc32)cc1 [TCMDC-143288] | 6.8 | < 4.3 | < 4.3 | < 4.3 | < 4.3 | < 4.3
17 | Cc1cc(C)nc(N2CCC(N(Cc3cccnc3)C(=O)c3cccc(C#N)c3)CC2)n1 [TCMDC-143272] | 6.9 | < 4.3 | < 4.3 | < 4.3 | < 4.3 | < 4.3
18 | Cc1ccc2nc(N(Cc3cccnc3)C(=O)CCc3ccccc3)sc2c1 [TCMDC-143553] | 7.2 | 4.7 | < 4.3 |  |  | 
19 | COc1ccc(-c2ccc3nnc(-c4ccc(O)c(OC)c4)n3c2)cn1 [TCMDC-143413] | < 4 | < 4.3 | < 4.3 | < 4.3 | < 4.3 | < 4.3

Row | SMILES | CYP51 pIC50 [1] | Trypomastigotes pIC50 48 hours [2] | Trypomastigotes pIC50 72 hours [2] | 48 pIC50 ([2]; figure 1A) | 72 pIC50 ([2]; figure 1A) | 72 pIC50 ([2]; figure 1B)
20 | CCC(c1ccc(F)cc1)n1cncc1-c1cnn(C)c1 (centres unmarked) [TCMDC-143416] | 7.1 | < 4.3 | < 4.3 | < 4.3 | < 4.3 | < 4.3
21 | O=C(NCCc1nc(-c2ccc(F)c(F)c2)n[nH]1)C1CCCCC1 [TCMDC-143466] | 4.6 | < 4.3 | 4.5 |  |  | 
22 | CC(C)Oc1ccc(C(=O)Nc2ccc(N3CCOCC3)c(Cl)c2)cc1 [TCMDC-143592] | < 4 | < 4.3 | < 4.3 | < 4.3 | < 4.3 | < 4.3
23 | COc1ccccc1C=CCN1C[C@H]2CCC[C@@H](C1)C2(O)c1cccnc1 (some centres unmarked) [TCMDC-143309] | 6.9 | < 4.3 | 4.5 |  |  | 
24 | CC1=NN(C(=O)CCn2cnc([N+](=O)[O-])n2)C(O)(C(F)(F)F)C1 (centres unmarked) [TCMDC-143157] | < 4 | < 4.3 | < 4.3 | < 4.3 | < 4.3 | < 4.3
25 | O=C1CCCCCC1(Cc1cnc[nH]1)c1ccc(Cl)cc1Cl (centres unmarked) [TCMDC-143081] | 7 | < 4.3 | < 4.3 | < 4.3 | < 4.3 | < 4.3
26 | COc1ccc2nccc([C@H](O)CN3CC[C@H](NC(=O)c4ccc(Br)cc4)[C@@H](O)C3)c2n1 [TCMDC-143527] | 5.2 | < 4.3 | < 4.3 | < 4.3 | < 4.3 | < 4.3
27 | CC(C)(C)C(O)(CCc1ccc(Cl)cc1)Cn1cncn1 (centres unmarked) [TCMDC-143614] | 6.9 | < 4.3 | < 4.3 | < 4.3 | < 4.3 | < 4.3
28 | O=C(NCC(c1cccnc1)N1CCc2ccccc2C1)C(=O)Nc1cccc(Cl)c1 (centres unmarked) [TCMDC-143329] | 7.2 | 4.8 | 4.8 | 4.8 | 4.8 | 4.8
29 | O=[N+]([O-])c1cccc(Nc2cncc(-c3ccccc3CO)c2)c1 [TCMDC-143559] | 5.5 | < 4.3 | < 4.3 | < 4.3 | < 4.3 | < 4.3
30 | Cc1cc(N(C)C)nc2ccc(Cc3cnc(N)nc3N)cc12 [TCMDC-143611] | < 4 | 4.6 | 5.9 |  |  | 
31 | CN(C)CCN(C)Cc1ccc(F)cc1NS(=O)(=O)c1ccc(Cl)c(Cl)c1 [TCMDC-143118] | < 4 | 5.9 | 5.9 | 5.9 | 5.9 | 5.9
32 | COc1cccc(-c2cc(C(F)(F)F)nc(-n3ccc([N+](=O)[O-])n3)n2)c1 [TCMDC-143105] | < 4 | 5.8 | 6 |  |  | 
33 | c1cncc(CN(Cc2ccco2)Cc2cn[nH]c2-c2cccs2)c1 [TCMDC-143440] | 7.1 | 4.4 | < 4.3 |  |  | 
34 | Clc1ccc(CN2CCN(C3=NCCN3)CC2)cc1Cl.I.I [TCMDC-143605] | < 4 | 5.6 | 5.3 |  |  | 
35 | CN(Cc1cccnc1)Cc1ccc(N2CCN(C(=O)C3(c4ccc(Cl)cc4)CC3)CC2)nc1 [TCMDC-143247] | 6.8 | 5.1 | 4.4 |  |  | 
36 | O=C(COc1ncnc2cc([N+](=O)[O-])ccc12)NC(=O)NC1CCCCC1 [TCMDC-143564] | < 4 | 5.7 | 5.9 |  |  | 
37 | Cl.Clc1ccc(C(CC2CCCCO2)Cn2cncn2)c(Cl)c1 (centres unmarked) [TCMDC-143082] | 6.6 | < 4.3 | < 4.3 | < 4.3 | < 4.3 | < 4.3
